Data from patent publication US20120095211A1, “SUBSTITUTED PROLINE INHIBITORS OF HEPATITIS C VIRUS REPLICATION” (InterMune, Inc., priority 2010, published 2012).
Where two headings read alike, the source gives them in different places.

How the values were obtained:
[1] = target: NS3/NS4 complexes (Hepatitis C virus genotype 1a, UniProt P27958); test: NS3/NS4 inhibition assay (inhibitory concentrations of test compounds); format: biochemical; conditions: NS3-NS4 activity; 23° C., pH 7.5, 25 μM NS4A peptide
Chain of NS3/NS4 complexes (P27958 1658-1711): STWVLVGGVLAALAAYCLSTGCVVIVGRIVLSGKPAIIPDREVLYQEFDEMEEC
Chain of NS3/NS4 complexes (P27958 1027-1657): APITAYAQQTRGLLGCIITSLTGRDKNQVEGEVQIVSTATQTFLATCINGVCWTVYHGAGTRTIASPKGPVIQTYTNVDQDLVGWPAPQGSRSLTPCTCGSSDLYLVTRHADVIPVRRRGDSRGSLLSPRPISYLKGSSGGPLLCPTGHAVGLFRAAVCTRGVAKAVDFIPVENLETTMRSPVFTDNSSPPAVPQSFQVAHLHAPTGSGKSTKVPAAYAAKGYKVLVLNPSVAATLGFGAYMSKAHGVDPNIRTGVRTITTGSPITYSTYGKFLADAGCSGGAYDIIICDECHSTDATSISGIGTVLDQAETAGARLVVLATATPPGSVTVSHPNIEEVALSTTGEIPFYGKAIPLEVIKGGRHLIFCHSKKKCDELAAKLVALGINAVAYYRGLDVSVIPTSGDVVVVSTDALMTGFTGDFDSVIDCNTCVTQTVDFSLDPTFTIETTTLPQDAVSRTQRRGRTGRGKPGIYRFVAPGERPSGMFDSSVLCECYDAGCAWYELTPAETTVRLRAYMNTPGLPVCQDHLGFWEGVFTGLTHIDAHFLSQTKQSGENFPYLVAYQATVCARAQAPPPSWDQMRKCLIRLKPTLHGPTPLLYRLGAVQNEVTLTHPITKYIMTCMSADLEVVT
Description: (§1) NS3-NS4 inhibition activity can be determined using known assay methods. For example, NS3/NS4 complexes may be formed and inhibitory concentrations of test compounds determined as described in U.S. Patent Application Publication Number 2007/0054842 paragraph numbers 1497-1509, which is incorporated herein by reference in its entirety. Similarly, hepatitis C replicon EC50 may be determined using known assay methods such as described in U.S. Patent Application Publication Number 2007/0054842 paragraph numbers 1510-1515, which is incorporated herein by reference in its entirety. Assays may be conducted at ambient temperature (23° C.) in assay buffer containing 50 mM Tris-HCl, pH 7.5, 15% glycerol, 0.6 mM Lauryldimethylamine Oxide (LDAO), 25 μM NS4A peptide, and 10 mM Dithiothreitol (DTT).

[2] = test system: hepatitis C replicon; test: hepatitis C replicon EC50 assay; format: cell-based, hepatitis C virus (HCV); conditions: Hepatitis C virus
Description: as §1

[3] = rcm bond
[4] = hepatitis C replicon, read-out: EC50

SMILES	IC50 [1] [nM]	EC50 [2, 4] [nM]	also measured
C=C[C@@H]1C[C@]1(NC(=O)[C@@H]1[C@H](C)[C@@H](Oc2cc(-c3nc(C(C)C)cs3)nc3c(C)c(OC)ccc23)CN1C(=O)[C@@H](NC(=O)OC(C)(C)C)C(C)(C)C)C(=O)NS(=O)(=O)C1(C)CC1 [Compound 204]	< 10	< 10	
C=C[C@@H]1C[C@]1(NC(=O)[C@@H]1[C@@H](C)[C@@H](Oc2cc(-c3nc(C(C)C)cs3)nc3c(C)c(OC)ccc23)CN1C(=O)[C@@H](N)C(C)(C)C)C(=O)NS(=O)(=O)C1(C)CC1 [Compound 212]	> 100		
C=C[C@@H]1C[C@]1(NC(=O)[C@@H]1[C@H](C)[C@@H](Oc2cc(-c3nc(C(C)C)cs3)nc3c(C)c(OC)ccc23)CN1C(=O)C(N)C(C)(C)C)C(=O)NS(=O)(=O)C1(C)CC1 (some centres unmarked) [Compound 203]	< 10	10 to 100	
C=C[C@@H]1C[C@]1(NC(=O)[C@@H]1[C@@H](C)[C@@H](Oc2cc(-c3nc(C(C)C)cs3)nc3c(C)c(OC)ccc23)CN1C(=O)[C@@H](NC(=O)OC(C)(C)C)C(C)(C)C)C(=O)NS(=O)(=O)C1(C)CC1 [Compound 208]	10 to 100		EC50 [2]: > 100 nM
COc1ccc2c(O[C@H]3CN4C(=O)[C@@H](NC(=O)OC(C)(C)C)CCCCCC=C[C@@H]5C[C@@]5(C(=O)NS(=O)(=O)C5(C)CC5)NC(=O)[C@@H]4[C@H]3C)cc(-c3nc(C(C)C)cs3)nc2c1C			ring closure, yield of all isomers ([3]; from C=CCCCCC[C@H](NC(=O)OC(C)(C)C)C(=O)N1C[C@H](Oc2cc(-c3nc(C(C)C)cs3)nc3c(C)c(OC)ccc23)[C@H](C)[C@H]1C(=O)N[C@]1(C(=O)NS(=O)(=O)C2(C)CC2)C[C@H]1C=C, Zhan catalyst, 70.0 °C, 0.5 h): 59%
C=C[C@@H]1C[C@]1(NC(=O)[C@@H]1[C@H](C)[C@@H](Oc2ncc(OC)c3ccc(Cl)cc23)CN1C(=O)[C@@H](NC(=O)OC(C)(C)C)C(C)(C)C)C(=O)NS(=O)(=O)C1(C)CC1 [Compound 211]	< 10	< 10	
C=C[C@@H]1C[C@]1(NC(=O)[C@@H]1[C@H](C)[C@@H](Oc2cc(-c3nc(C(C)C)cs3)nc3c(C)c(OC)ccc23)CN1C(=O)[C@@H](N)C(C)(C)C)C(=O)NS(=O)(=O)C1CC1 [Compound 207]	< 10	> 100	
COc1cnc(O[C@H]2CN3C(=O)[C@@H](NC(=O)OC(C)(C)C)CCCCC/C=C\[C@@H]4C[C@@]4(C(=O)O)NC(=O)[C@@H]3[C@@H]2C)c2cc(Cl)ccc12 [Compound 110]	< 10	> 100	
CC(C)n1c(O[C@H]2CN3C(=O)[C@@H](NC(=O)OC(C)(C)C)CCCCCC=C[C@@H]4C[C@@]4(C(=O)NS(=O)(=O)C4(C)CC4)NC(=O)[C@@H]3[C@@H]2C)nc2c(-c3nc(C4CCCCC4)cs3)cccc21			ring closure, yield of all isomers ([3]; from C=CCCCCC[C@H](NC(=O)OC(C)(C)C)C(=O)N1C[C@H](Oc2nc3c(-c4nc(C5CCCCC5)cs4)cccc3n2C(C)C)[C@@H](C)[C@H]1C(=O)N[C@]1(C(=O)NS(=O)(=O)C2(C)CC2)C[C@H]1C=C, Zhan catalyst, toluene, 5.16 mM, 65.0 °C, 1.0 h): 53.9%
COc1ccc2c(O[C@H]3CN4C(=O)[C@@H](NC(=O)OC(C)(C)C)CCCCC/C=C\[C@@H]5C[C@@]5(C(=O)NS(=O)(=O)C5(C)CC5)NC(=O)[C@@H]4C3(C)C)cc(-c3nc(C(C)C)cs3)nc2c1C [Compound 101]	10 to 100	> 100	
CCOC(=O)[C@@]12C[C@H]1C=CCCCCC[C@H](NC(=O)OC(C)(C)C)C(=O)N1C[C@H](Oc3cc(-c4nc(C(C)C)cs4)nc4c(C)c(OC)ccc34)[C@@H](C)[C@H]1C(=O)N2			ring closure, yield of all isomers ([3]; from C=CCCCCC[C@H](NC(=O)OC(C)(C)C)C(=O)N1C[C@H](Oc2cc(-c3nc(C(C)C)cs3)nc3c(C)c(OC)ccc23)[C@@H](C)[C@H]1C(=O)N[C@]1(C(=O)OCC)C[C@H]1C=C, Zhan catalyst, toluene, 11.67 mM, 70.0 °C, 2.0 h): 75%
COc1ccc2c(O[C@H]3CN4C(=O)[C@@H](NC(=O)OC(C)(C)C)CCCCCC=C[C@@H]5C[C@@]5(C(=O)NS(=O)(=O)C5(C)CC5)NC(=O)[C@@H]4[C@@H]3C)cc(-c3nc(C(C)C)cs3)nc2c1C			ring closure, yield of all isomers ([3]; from C=CCCCCC[C@H](NC(=O)OC(C)(C)C)C(=O)N1C[C@H](Oc2cc(-c3nc(C(C)C)cs3)nc3c(C)c(OC)ccc23)[C@@H](C)[C@H]1C(=O)N[C@]1(C(=O)NS(=O)(=O)C2(C)CC2)C[C@H]1C=C, Zhan catalyst, toluene, 5.9 mM, 65.0 °C, 0.5 h): 68%
CCOC(=O)[C@@]12C[C@H]1C=CCCCCC[C@H](NC(=O)OC(C)(C)C)C(=O)N1C[C@H](Oc3nc4c(-c5nc(C6CCCCC6)cs5)cccc4n3C(C)C)[C@@H](C)[C@H]1C(=O)N2			ring closure, yield of all isomers ([3]; from C=CCCCCC[C@H](NC(=O)OC(C)(C)C)C(=O)N1C[C@H](Oc2nc3c(-c4nc(C5CCCCC5)cs4)cccc3n2C(C)C)[C@@H](C)[C@H]1C(=O)N[C@]1(C(=O)OCC)C[C@H]1C=C, Hoveyda-Grubbs catalyst, 1,2-dichloroethane, 0.96 mM): 83%
C=C[C@@H]1C[C@]1(NC(=O)[C@@H]1[C@H](C)[C@@H](Oc2ncc(OC)c3ccc(Cl)cc23)CN1C(=O)[C@@H](NC(=O)OC(C)(C)C)C(C)(C)C)C(=O)O [Compound 210]	10 to 100	> 100	
C=C[C@@H]1C[C@]1(NC(=O)[C@H]1N(C(=O)C(NC(=O)OC(C)(C)C)C(C)(C)C)C[C@H](Oc2cc(-c3nc(C(C)C)cs3)nc3c(C)c(OC)ccc23)C1(C)C)C(=O)NS(=O)(=O)C1(C)CC1 (some centres unmarked) [Compound 202]	> 100	> 100	
COc1ccc2c(O[C@H]3CN4C(=O)[C@@H](N)CCCCC/C=C\[C@@H]5C[C@@]5(C(=O)NS(=O)(=O)C5(C)CC5)NC(=O)[C@@H]4[C@@H]3C)cc(-c3nc(C(C)C)cs3)nc2c1C [Compound 104]	< 10	10 to 100	
COc1ccc2c(O[C@H]3CN4C(=O)[C@@H](NC(=O)OC(C)(C)C)CCCCC/C=C\[C@@H]5C[C@@]5(C(=O)NS(=O)(=O)C5(C)CC5)NC(=O)[C@@H]4[C@H]3C)cc(-c3nc(C(C)C)cs3)nc2c1C [Compound 106]	10 to 100	> 100	
COc1cnc(O[C@H]2CN3C(=O)[C@@H](NC(=O)OC(C)(C)C)CCCCC/C=C\[C@@H]4C[C@@]4(C(=O)NS(=O)(=O)C4(C)CC4)NC(=O)[C@@H]3[C@@H]2C)c2cc(Cl)ccc12 [Compound 111]	< 10	< 10	
COc1ccc2c(O[C@H]3CN4C(=O)[C@@H](NC(=O)OC(C)(C)C)CCCCC/C=C\[C@@H]5C[C@@]5(C(=O)NS(=O)(=O)C5CC5)NC(=O)[C@@H]4[C@@H]3C)cc(-c3nc(C(C)C)cs3)nc2c1C [Compound 103]	< 10	< 10	
COc1ccc2c(O[C@H]3CN4C(=O)[C@@H](NC(=O)OC(C)(C)C)CCCCC/C=C\[C@@H]5C[C@@]5(C(=O)NS(=O)(=O)C5(C)CC5)NC(=O)[C@@H]4[C@@H]3C)cc(-c3nc(C(C)C)cs3)nc2c1C [Compound 102]	< 10	< 10	
CCOC(=O)[C@@]12C[C@H]1C=CCCCCC[C@H](NC(=O)OC(C)(C)C)C(=O)N1C[C@H](Oc3ncc(OC)c4ccc(Cl)cc34)[C@@H](C)[C@H]1C(=O)N2			ring closure, yield of all isomers ([3]; from C=CCCCCC[C@H](NC(=O)OC(C)(C)C)C(=O)N1C[C@H](Oc2ncc(OC)c3ccc(Cl)cc23)[C@@H](C)[C@H]1C(=O)N[C@]1(C(=O)OCC)C[C@H]1C=C, Hoveyda-Grubbs catalyst, 1,2-dichloroethane, 0.8 mM, 12.0 h): 92%
C=C[C@@H]1C[C@]1(NC(=O)[C@@H]1[C@H](C)[C@@H](Oc2cc(-c3nc(C(C)C)cs3)nc3c(C)c(OC)ccc23)CN1C(=O)[C@@H](NC(=O)OC(C)(C)C)C(C)(C)C)C(=O)NS(=O)(=O)C1CC1 [Compound 205]	< 10	< 10	
C=C[C@@H]1C[C@]1(NC(=O)[C@@H]1[C@H](C)[C@@H](Oc2cc(-c3nc(C(C)C)cs3)nc3c(C)c(OC)ccc23)CN1C(=O)[C@@H](Nc1cccc(C(F)(F)F)c1)C(C)(C)C)C(=O)NS(=O)(=O)C1(C)CC1 [Compound 209]	< 10	10 to 100	
COc1ccc2c(O[C@H]3CN4C(=O)[C@@H](NC(=O)OC(C)(C)C)CCCCCC=C[C@@H]5C[C@@]5(C(=O)NS(=O)(=O)C5(C)CC5)NC(=O)[C@@H]4C3(C)C)cc(-c3nc(C(C)C)cs3)nc2c1C			ring closure, yield of all isomers ([3]; from C=CCCCCC[C@H](NC(=O)OC(C)(C)C)C(=O)N1C[C@H](Oc2cc(-c3nc(C(C)C)cs3)nc3c(C)c(OC)ccc23)C(C)(C)[C@H]1C(=O)N[C@]1(C(=O)NS(=O)(=O)C2(C)CC2)C[C@H]1C=C, Zhan catalyst, toluene, 5.9 mM, 65.0 °C, 1.33 h): 56%
CC(C)n1c(O[C@H]2CN3C(=O)[C@@H](NC(=O)OC(C)(C)C)CCCCC/C=C\[C@@H]4C[C@@]4(C(=O)NS(=O)(=O)C4(C)CC4)NC(=O)[C@@H]3[C@@H]2C)nc2c(-c3nc(C4CCCCC4)cs3)cccc21 [Compound 107]	< 10	10 to 100	
CC(C)n1c(O[C@H]2CN3C(=O)[C@@H](NC(=O)OC(C)(C)C)CCCCC/C=C\[C@@H]4C[C@@]4(C(=O)NS(=O)(=O)C4CC4)NC(=O)[C@@H]3[C@@H]2C)nc2c(-c3nc(C4CCCCC4)cs3)cccc21 [Compound 109]	< 10	10 to 100	
